The target of assay [1] is T1, JAK 1 (Homo sapiens (Human), UniProt P23458). Kind of assay: Biochemical potency JAK1, TR-FRET LANCE Ultra kinase assay (examples 1a-10a). Particulars: ATP corresponding to Km. The text has this: Pharmacological Activity of the Compounds of the Invention (1a-10a).
The objective of this study was to assess the activity of novel JAK inhibitors measuring the capability of compounds to inhibit JAK1 kinase activity in a biochemical time-resolved fluorescence resonance energy transfer (TR-FRET) LANCE assay. In LANCE Ultra kinase assay in the presence of JAK1 kinase and ATP (corresponding to Km), the ULight peptide substrate (LANCE Ulight-JAK-1 (Tyr1023) Peptide, Perkin Elmer, TRF0121) was phosphorylated. It was then captured by a Eu-anti-phospho-substrate antibody (LANCE Eu-W1024 Anti-phosphotyrosine (PT66), Perkin Elmer, AD0069), which brought the Eu-chelate donor and ULight acceptor dyes into close proximity. Upon excitation at 320 nm, the Eu-chelate transfers its energy to the ULight dye, resulting in a fluorescent light emission at 665 nm. Inhibitors were tested at 11 consecutive 5-fold dilutions starting from 30 μM (30 μM-[…]) in duplicate. Calculation of IC50 data, curves and QC analysis were made using Excel tools and GraphPadPrism software. QC criteria parameters: Z′≥0.5, Hill Slope range 0.5 to 5, S:B>2.
In general terms: In TR-FRET formats the signal depends on donor and acceptor labels being close together.

Assay [2] deals with IL-2 induced phosphorylation of STAT5 (JAK1/JAK3 activity) in human peripheral blood mononuclear cells (PBMCs). Kind of assay: Cell based assay PBMC (IL-2 stimulated pSTAT5). Particulars: 0.5 h, rh IL-2, 30 min incubation, pSTAT5 ELISA, read-out: Cell Based assay PBMC (IL-2 stimulated pSTAT5), data displayed as pIC50 (converted). Here is the method:
In addition to enzymatic potency, the effects of the inhibitors against JAK1/JAK3 activity in a cellular assay was characterized against IL-2 induced phosphorylation of STAT5 level in human peripheral blood mononuclear cells (PBMCs).
PBMC have been isolated from human healthy volunteers. Cells were seeded in wells and treated with compounds and rh IL-2. After 30 min incubation cells were lysed and pSTAT5 determined by PathScan phospho-stat5 (Tyr694) ELISA (Cell signaling). Inhibitors were tested at 11 consecutive 5-fold dilutions starting from 30 μM (30 μM-[…]) in duplicate. Calculation of IC50 data, curves and QC analysis were made using Excel tools and GraphPadPrism software. QC criteria parameters: Z′≥0.35, Hill Slope range 0.5 to 5, S:B>2.
Background: An ELISA detects its analyte on a solid surface through an enzyme-linked reagent.

Assay [3] concerns the target T1, JAK 1. Kind of assay: Biochemical potency on JAK1, TR-FRET LANCE Ultra kinase assay (compounds 1-92). Particulars: ATP at Km, read-out: JAK1 inhibitory activity (pIC50 class) (converted). The essentials:
(§1)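 TR-FRET (LANCE Ultra) phosphorylation of ULight-JAK-1 peptide, ATP at Km: JAK1/JAK2/JAK3/TYK2 peptide 30/50/20/10 nM, ATP 20/0.7/0.2/12 μM, enzyme 0.15/0.083/0.025/0.144 ng/μL. 11-point 5-fold series from 20 μM; 1.5 h RT, EDTA stop, Eu-anti-pTyr detection 1 h; IC50 by variable-slope fit.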

The target in the next assay is JAK 2 (Homo sapiens (Human), UniProt O60674). Kind of assay: Biochemical potency on JAK2, TR-FRET LANCE Ultra kinase assay (compounds 1-92). As to conditions: ATP at Km, read-out: JAK2 inhibitory activity (pIC50 class) (converted). The gist of the method: as §1
The target of a further assay is JAK 3 (Homo sapiens (Human), UniProt P52333). Description: Biochemical potency on JAK3, TR-FRET LANCE Ultra kinase assay (compounds 1-92). Particulars: ATP at Km, read-out: JAK3 inhibitory activity (pIC50 class) (converted). The essentials:
as §1

For another assay, the target named is TYK2 (Homo sapiens (Human), UniProt P29597). Description: Biochemical potency on Tyk2, TR-FRET LANCE Ultra kinase assay (compounds 1-92). Particulars: ATP at Km, read-out: Tyk2 inhibitory activity (pIC50 class) (converted). The essentials: as §1
Chain of TYK2 (P29597 whole entry): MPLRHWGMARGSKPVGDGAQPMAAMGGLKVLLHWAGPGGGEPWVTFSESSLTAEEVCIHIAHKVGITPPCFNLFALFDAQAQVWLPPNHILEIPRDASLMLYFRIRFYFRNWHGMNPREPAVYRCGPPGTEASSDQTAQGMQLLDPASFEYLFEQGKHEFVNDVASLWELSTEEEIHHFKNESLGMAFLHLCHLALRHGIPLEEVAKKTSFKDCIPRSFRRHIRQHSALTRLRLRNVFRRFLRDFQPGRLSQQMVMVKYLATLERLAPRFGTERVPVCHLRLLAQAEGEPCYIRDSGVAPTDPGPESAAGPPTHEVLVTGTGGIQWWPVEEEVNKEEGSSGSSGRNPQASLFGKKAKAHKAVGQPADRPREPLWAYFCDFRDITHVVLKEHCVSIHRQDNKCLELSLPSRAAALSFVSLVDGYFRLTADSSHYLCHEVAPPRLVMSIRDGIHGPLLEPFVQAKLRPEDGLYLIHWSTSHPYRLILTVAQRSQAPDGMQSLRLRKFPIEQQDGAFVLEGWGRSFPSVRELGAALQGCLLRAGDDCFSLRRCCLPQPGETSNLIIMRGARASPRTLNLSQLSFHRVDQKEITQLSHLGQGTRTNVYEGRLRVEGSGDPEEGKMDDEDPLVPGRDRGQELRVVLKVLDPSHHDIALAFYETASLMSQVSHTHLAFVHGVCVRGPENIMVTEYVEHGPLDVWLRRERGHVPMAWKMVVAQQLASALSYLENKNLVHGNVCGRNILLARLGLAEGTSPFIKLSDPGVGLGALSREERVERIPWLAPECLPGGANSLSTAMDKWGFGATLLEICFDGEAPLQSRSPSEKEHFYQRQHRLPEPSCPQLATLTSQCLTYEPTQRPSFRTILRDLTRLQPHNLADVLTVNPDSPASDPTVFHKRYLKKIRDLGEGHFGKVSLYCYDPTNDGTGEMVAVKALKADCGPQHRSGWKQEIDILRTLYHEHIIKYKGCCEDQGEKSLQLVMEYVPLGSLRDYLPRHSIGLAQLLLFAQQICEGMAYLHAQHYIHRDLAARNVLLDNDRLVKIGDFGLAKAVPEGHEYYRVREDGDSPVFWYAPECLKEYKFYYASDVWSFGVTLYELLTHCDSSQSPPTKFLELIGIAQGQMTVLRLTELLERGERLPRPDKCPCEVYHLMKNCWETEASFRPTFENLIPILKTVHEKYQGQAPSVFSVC

T1 sequence (P23458 whole entry): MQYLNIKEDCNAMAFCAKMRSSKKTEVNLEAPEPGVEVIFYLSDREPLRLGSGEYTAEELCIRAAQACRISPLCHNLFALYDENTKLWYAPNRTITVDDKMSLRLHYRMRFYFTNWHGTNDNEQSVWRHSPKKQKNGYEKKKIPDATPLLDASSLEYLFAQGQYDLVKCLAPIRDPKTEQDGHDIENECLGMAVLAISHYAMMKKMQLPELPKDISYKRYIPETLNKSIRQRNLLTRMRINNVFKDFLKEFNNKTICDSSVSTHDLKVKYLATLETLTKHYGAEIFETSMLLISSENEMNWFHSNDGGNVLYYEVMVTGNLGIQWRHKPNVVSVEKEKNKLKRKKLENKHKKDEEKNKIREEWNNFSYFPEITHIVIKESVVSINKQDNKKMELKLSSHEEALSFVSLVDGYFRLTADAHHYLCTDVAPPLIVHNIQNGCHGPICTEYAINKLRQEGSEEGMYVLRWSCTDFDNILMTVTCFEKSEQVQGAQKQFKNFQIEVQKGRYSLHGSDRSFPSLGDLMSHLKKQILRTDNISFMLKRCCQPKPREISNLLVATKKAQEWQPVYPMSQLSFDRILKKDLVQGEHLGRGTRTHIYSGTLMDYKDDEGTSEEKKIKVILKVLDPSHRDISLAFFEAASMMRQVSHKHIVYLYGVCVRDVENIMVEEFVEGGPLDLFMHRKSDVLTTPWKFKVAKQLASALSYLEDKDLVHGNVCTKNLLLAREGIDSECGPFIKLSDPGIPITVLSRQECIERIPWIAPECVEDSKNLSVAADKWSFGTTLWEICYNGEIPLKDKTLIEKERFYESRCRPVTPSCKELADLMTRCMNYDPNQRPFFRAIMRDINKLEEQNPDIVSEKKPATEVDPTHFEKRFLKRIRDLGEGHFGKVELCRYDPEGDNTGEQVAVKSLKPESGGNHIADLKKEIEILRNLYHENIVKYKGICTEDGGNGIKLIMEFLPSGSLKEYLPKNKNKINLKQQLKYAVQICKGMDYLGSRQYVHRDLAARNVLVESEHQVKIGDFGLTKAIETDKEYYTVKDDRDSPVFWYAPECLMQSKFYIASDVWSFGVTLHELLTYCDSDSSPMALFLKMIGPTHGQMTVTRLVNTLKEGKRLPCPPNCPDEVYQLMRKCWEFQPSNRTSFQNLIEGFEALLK
Chain of JAK 3 (P52333 whole entry): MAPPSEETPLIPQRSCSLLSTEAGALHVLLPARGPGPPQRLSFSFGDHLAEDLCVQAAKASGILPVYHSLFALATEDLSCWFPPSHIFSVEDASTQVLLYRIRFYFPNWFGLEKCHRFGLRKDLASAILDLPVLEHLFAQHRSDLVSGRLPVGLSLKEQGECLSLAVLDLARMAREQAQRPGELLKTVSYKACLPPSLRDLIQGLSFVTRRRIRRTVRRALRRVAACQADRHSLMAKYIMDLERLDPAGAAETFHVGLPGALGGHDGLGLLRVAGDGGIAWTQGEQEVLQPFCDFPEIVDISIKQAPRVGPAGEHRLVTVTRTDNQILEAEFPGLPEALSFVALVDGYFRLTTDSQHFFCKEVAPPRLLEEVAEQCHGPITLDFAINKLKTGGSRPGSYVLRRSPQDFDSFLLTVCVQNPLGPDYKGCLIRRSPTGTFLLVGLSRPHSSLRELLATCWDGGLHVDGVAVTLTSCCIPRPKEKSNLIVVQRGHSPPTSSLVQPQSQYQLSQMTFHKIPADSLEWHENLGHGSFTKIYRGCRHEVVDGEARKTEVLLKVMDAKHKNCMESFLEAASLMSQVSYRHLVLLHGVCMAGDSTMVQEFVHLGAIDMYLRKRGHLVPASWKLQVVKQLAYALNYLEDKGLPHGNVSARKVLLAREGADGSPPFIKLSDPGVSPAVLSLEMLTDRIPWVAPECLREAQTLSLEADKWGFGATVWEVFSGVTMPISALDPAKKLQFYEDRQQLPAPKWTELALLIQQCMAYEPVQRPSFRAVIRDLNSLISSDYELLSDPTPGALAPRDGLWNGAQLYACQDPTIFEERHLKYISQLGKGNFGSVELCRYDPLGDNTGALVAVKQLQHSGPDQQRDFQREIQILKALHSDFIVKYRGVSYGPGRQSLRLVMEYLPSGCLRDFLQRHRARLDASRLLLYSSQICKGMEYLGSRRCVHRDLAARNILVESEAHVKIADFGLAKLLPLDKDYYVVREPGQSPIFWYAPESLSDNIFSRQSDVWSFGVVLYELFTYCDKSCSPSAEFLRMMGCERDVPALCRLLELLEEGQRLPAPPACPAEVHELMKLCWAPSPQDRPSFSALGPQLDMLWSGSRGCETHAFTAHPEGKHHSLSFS
Chain of JAK 2 (O60674 whole entry): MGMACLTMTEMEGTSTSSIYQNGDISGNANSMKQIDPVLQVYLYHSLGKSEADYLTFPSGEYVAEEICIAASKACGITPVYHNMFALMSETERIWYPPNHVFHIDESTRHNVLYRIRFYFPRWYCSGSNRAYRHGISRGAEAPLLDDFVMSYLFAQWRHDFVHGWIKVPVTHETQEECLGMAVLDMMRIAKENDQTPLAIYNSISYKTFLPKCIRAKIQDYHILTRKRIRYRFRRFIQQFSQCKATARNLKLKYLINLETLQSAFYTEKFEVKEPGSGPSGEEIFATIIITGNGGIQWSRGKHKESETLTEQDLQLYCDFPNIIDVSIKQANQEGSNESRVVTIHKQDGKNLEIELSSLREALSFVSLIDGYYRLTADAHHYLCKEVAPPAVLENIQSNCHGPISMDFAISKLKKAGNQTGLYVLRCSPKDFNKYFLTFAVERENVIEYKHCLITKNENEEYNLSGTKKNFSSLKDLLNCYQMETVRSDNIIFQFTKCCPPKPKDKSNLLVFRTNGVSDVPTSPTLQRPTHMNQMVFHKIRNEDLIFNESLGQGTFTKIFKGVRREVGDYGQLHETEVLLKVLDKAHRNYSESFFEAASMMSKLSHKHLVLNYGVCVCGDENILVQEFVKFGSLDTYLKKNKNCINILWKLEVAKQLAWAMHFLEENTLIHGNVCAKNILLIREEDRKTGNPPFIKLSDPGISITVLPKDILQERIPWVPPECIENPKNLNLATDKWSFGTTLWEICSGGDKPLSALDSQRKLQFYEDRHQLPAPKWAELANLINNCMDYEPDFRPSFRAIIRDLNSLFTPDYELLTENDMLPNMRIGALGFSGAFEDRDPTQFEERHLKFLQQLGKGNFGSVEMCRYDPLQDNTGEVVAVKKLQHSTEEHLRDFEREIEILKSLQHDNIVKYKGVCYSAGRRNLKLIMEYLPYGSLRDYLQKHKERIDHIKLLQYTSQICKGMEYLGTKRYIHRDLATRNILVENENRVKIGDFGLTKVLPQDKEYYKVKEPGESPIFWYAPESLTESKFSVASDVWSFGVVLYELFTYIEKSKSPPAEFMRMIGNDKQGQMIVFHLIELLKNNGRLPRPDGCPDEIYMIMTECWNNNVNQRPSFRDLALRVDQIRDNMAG

Regarding `OCc1nn(-c2cc(Cl)ccc2OC(F)F)c2cc(-c3cnn4cccnc34)cnc12` [Example 1a, (1-(5-chloro-2-(difluoromethoxy)phenyl)-6-(pyrazolo[1,5-a]pyrimidin-3-yl)-1H-pyrazolo[4,3-b]pyridin-3-yl)methanol], the “Biochemical Potency JAK 1 (pIC50)” value on JAK 1 [1] was determined as 8.1. For the same molecule, the IC50 in assay [2] is 50.1 nM.

On to `CN(C)C(=O)Cn1nc(-c2cc(Cl)ccc2OC(F)F)c2cc(-c3cnn4cccnc34)cnc21` [Example 2a, 2-(3-(5-chloro-2-(difluoromethoxy)phenyl)-5-(pyrazolo[1,5-a]pyrimidin-3-yl)-1H-pyrazolo[3,4-b]pyridin-1-yl)-N,N-dimethylacetamide], for which the “Biochemical Potency JAK 1 (pIC50)” value at JAK 1 [1] is given as 7.3. The IC50 in assay [2] is 631 nM.

Consider `COC(=O)c1nn(-c2cc(Cl)ccc2OC(F)F)c2cc(-c3cnn4cccnc34)cnc12` [Example 3a, methyl 1-(5-chloro-2-(difluoromethoxy)phenyl)-6-(pyrazolo[1,5-a]pyrimidin-3-yl)-1H-pyrazolo[4,3-b]pyridine-3-carboxylate], for which the “Biochemical Potency JAK 1 (pIC50)” value at JAK 1 [1] came to 8.1.

For the molecule `CN(C)C(=O)Cc1nn(-c2cc(Cl)ccc2OC(F)F)c2cc(-c3cnn4cccnc34)cnc12` [Example 4a, 2-(1-(5-chloro-2-(difluoromethoxy)phenyl)-6-(pyrazolo[1,5-a]pyrimidin-3-yl)-1H-pyrazolo[4,3-b]pyridin-3-yl)-N,N-dimethylacetamide], on JAK 1 [1], the “Biochemical Potency JAK 1 (pIC50)” value was 7.8. Also, the IC50 in assay [2] was 316 nM.

For the molecule `O=C(O)Cc1nn(-c2cc(Cl)ccc2OC(F)F)c2cc(-c3cnn4cccnc34)cnc12` [Example 5a, 2-(1-(5-chloro-2-(difluoromethoxy)phenyl)-6-(pyrazolo[1,5-a]pyrimidin-3-yl)-1H-pyrazolo[4,3-b]pyridin-3-yl)acetic acid], at JAK 1 [1], the “Biochemical Potency JAK 1 (pIC50)” value was 7.7. Moreover, the IC50 in assay [2] was 6310 nM.

`Cc1nn(-c2cc(Cl)ccc2OC(F)F)c2cc(-c3cnc4cccnn34)ncc12` [Example 6a, 1-(5-chloro-2-(difluoromethoxy)phenyl)-6-(imidazo[1,2-b]pyridazin-3-yl)-3-methyl-1H-pyrazolo[4,3-c]pyridine]: on JAK 1 [1], the “Biochemical Potency JAK 1 (pIC50)” value was determined as 8.4.

Consider `Cc1nn(-c2cc(Cl)ccc2OC(F)F)c2cc(-c3cnn4cccnc34)ncc12` [Example 7a, 1-(5-chloro-2-(difluoromethoxy)phenyl)-3-methyl-6-(pyrazolo[1,5-a]pyrimidin-3-yl)-1H-pyrazolo[4,3-c]pyridine], for which the “Biochemical Potency JAK 1 (pIC50)” value on JAK 1 [1] came to 8.5. In addition, the IC50 in assay [2] was 39.8 nM.

Consider `Cc1nn(Cc2ccc(Cl)cc2F)c2cc(-c3cnc4cccnn34)cnc12` [Example 8a, 1-(4-chloro-2-fluorobenzyl)-6-(imidazo[1,2-b]pyridazin-3-yl)-3-methyl-1H-pyrazolo[4,3-b]pyridine], for which, at JAK 1 [1], the “Biochemical Potency JAK 1 (pIC50)” value is 6.7. Also, the IC50 in assay [2] is 794 nM.

Turning to `Cc1nn(-c2cc(Cl)ccc2OC(F)F)c2cc(-c3cnn4cccnc34)cnc12` [Example 9a, 1-(5-chloro-2-(difluoromethoxy)phenyl)-3-methyl-6-(pyrazolo[1,5-a]pyrimidin-3-yl)-1H-pyrazolo[4,3-b]pyridine], the “Biochemical Potency JAK 1 (pIC50)” value on JAK 1 [1] was determined as 7.8. Besides, the IC50 in assay [2] is 50.1 nM.

As for `Cc1nn(C2CCCN(C(=O)CC#N)C2)c2cc(-c3cnn4cccnc34)cnc12` (centres unmarked) [Example 10a, 3-(3-(3-methyl-6-(pyrazolo[1,5-a]pyrimidin-3-yl)-1H-pyrazolo[4,3-b]pyridin-1-yl)piperidin-1-yl)-3-oxopropanenitrile], the “Biochemical Potency JAK 1 (pIC50)” value on JAK 1 [1] is listed as 6.0. Moreover, in assay [2], the IC50 was 6310 nM.

For `CCCS(=O)(=O)Nc1ccc(-n2nc(NCCN3CCCCC3)c3cnc(Nc4ncc[nH]c4=O)cc32)c(OC)c1` [Example 88, N-(3-methoxy-4-(6-((3-oxo-3,4-dihydropyrazin-2-yl)amino)-3-((2-(piperidin-1-yl)ethyl)amino)-1H-pyrazolo[4,3-c]pyridin-1-yl)phenyl)propane-1-sulfonamide], the IC50 on JAK 1 [3] was not above 5.01 nM; at JAK 2, not above 5.01 nM; on JAK 3, not above 5.01 nM; at TYK2 it was 5.01 to 50.1 nM.

`CCCS(=O)(=O)Nc1ccc(-n2nc(NCCN3CCOCC3)c3cnc(Nc4ncc[nH]c4=O)cc32)c(OC(F)F)c1` [Example 89, N-(3-(difluoromethoxy)-4-(3-((2-morpholinoethyl)amino)-6-((3-oxo-3,4-dihydropyrazin-2-yl)amino)-1H-pyrazolo[4,3-c]pyridin-1-yl)phenyl)propane-1-sulfonamide]: the IC50 on JAK 1 [3] was not above 5.01 nM; at JAK 2 it was not above 5.01 nM; at JAK 3, not above 5.01 nM; on TYK2, 5.01 to 50.1 nM.

Regarding `COc1cc(NS(C)(=O)=O)ccc1-n1nc(NCCN2C3CCC2COC3)c2cnc(Nc3ncc[nH]c3=O)cc21` [Example 90, N-(4-(3-((2-(3-oxa-8-azabicyclo[3.2.1]octan-8-yl)ethyl)amino)-6-((3-oxo-3,4-dihydropyrazin-2-yl)amino)-1H-pyrazolo[4,3-c]pyridin-1-yl)-3-methoxyphenyl)methanesulfonamide], the IC50 on JAK 1 [3], on JAK 2, at JAK 3 and on TYK2 was not above 5.01 nM throughout.

As to `CCCS(=O)(=O)Nc1ccc(-n2nc(NC)c3cnc(Nc4ncc[nH]c4=O)cc32)c(OC)c1` [Example 91, N-(3-methoxy-4-(3-(methylamino)-6-((3-oxo-3,4-dihydropyrazin-2-yl)amino)-1H-pyrazolo[4,3-c]pyridin-1-yl)phenyl)propane-1-sulfonamide], the IC50 was not above 5.01 nM on JAK 1 [3], not above 5.01 nM at JAK 2, not above 5.01 nM on JAK 3 and 5.01 to 50.1 nM at TYK2.

Consider `COc1cc(CNS(C)(=O)=O)ccc1-n1nc(NCCN2CCOCC2)c2cnc(Nc3ncc[nH]c3=O)cc21` [Example 92, N-(3-methoxy-4-(3-((2-morpholinoethyl)amino)-6-((3-oxo-3,4-dihydropyrazin-2-yl)amino)-1H-pyrazolo[4,3-c]pyridin-1-yl)benzyl)methanesulfonamide], for which the IC50 at JAK 1 [3], at JAK 2, on JAK 3 and on TYK2 was not above 5.01 nM in each case.

Values taken from US20240209001A1, “HETEROCYCLIC DERIVATIVES AS JANUS KINASE INHIBITORS” (CHIESI FARMACEUTICI S.P. A., priority 2021, published 2024).
